Where two headings read alike, the source gives them in different places.
Assays:
[1] = test system: models of pneumonia in rats induced by mixed bacteria solution of Staphylococcus aureus, Streptococcus pneumoniae, and Escherichia coli; assay: Lung function test in rat pneumonia model induced by mixed bacteria; type: in vivo, SD rats
Description: (§1) Bacterial pneumonia is the most common pneumonia, is also one of the most common infectious diseases, and is caused by bacterial infection. Main pathogenic bacteria of the bacterial pneumonia include Streptococcus pneumoniae, Staphylococcus aureus, Escherichia coli, and the like, which pose a great threat to the health of children and the elderly. In this experiment, a mixed bacteria solution of Staphylococcus aureus, Streptococcus pneumoniae, and Escherichia coli was instilled into the trachea to induce models of pneumonia in rats. Pharmacodynamic effects of a peptide on pneumonia were evaluated by observing effects of the peptide inhaled through the nose and mouth on the models of pneumonia caused by mixed bacteria infection.
(§2) 80 SD rats, SPF grade, half male and half female, were selected and randomly divided into 8 groups according to sex and body weight, including 6 rats in each of a blank control group and a model evaluation group, 8 rats in a blank administration group, and 12 rats in each of a model control group, an erythromycin group, a budesonide group, a low-dose polypeptide treatment group, and a high-dose polypeptide treatment group.
(§3) Animals in the blank administration group were not modeled, and inhaled a high-concentration polypeptide aerosol (0.48 mg/L) through nose and mouth every day. Animals in the blank control group were instilled with a 0.5 mL 0.9% sodium chloride injection through trachea. After the remaining groups were slightly anesthetized with ether, the model control group, the erythromycin group, the budesonide group, the low-dose polypeptide treatment group, and the high-dose polypeptide treatment group were instilled with a 1×10^8 CFU/mL mixed bacteria solution of Staphylococcus aureus, Streptococcus pneumoniae, and Escherichia coli through trachea, 0.5 mL/rat, respectively, and the blank control group was instilled with a 0.9% sodium chloride injection of a same volume.
(§4) A specific modeling method was as follows: a rat was anesthetized by ether inhalation and lied on an anatomical plate at an angle of 30-45°, trachea of the rat was exposed under an otoscope, a long puncture needle was connected to a 1 mL syringe and inserted into the trachea, each rat was injected with 0.5 mL of mixed bacteria, the puncture needle was pulled out after the injection, the rat was still kept at the original tilt position for about 10 min, and the bacteria solution flowed into bronchus and alveoli due to gravity to cause infection, so as to induce a rat pneumonia model.
(§5) Each group was administrated for the first time at 2 h after modeling. After the experiment begun, 7.16 mg/mL and 71.6 mg/mL peptide solutions were atomized into aerosol particles with target concentrations of 0.07 and 0.48 mg/L every day, and the animals in the low-dose peptide treatment group and the high-dose peptide treatment group (0.54 mg/kg and 3.7 mg/kg, corresponding to drug concentrations 0.07 and 0.48 mg/L respectively) inhaled the aerosol particles with corresponding concentrations through mouth and nose respectively for 7 consecutive days, 10 min/time, 3 times a day; the blank administration group (cumulative dose 22.2 mg/kg, corresponding to a drug concentration 0.48 mg/L) inhaled 0.48 mg/L peptide aerosol particles through mouth and nose every day for 7 consecutive days, 20 min/time, 3 times a day; the blank control group and the model control group inhaled a 0.9% sodium chloride solution for the same time according to the same method; the erythromycin group and the budesonide group were administrated with a 5 mg/mL erythromycin solution and a 0.05 mg/mL budesonide suspension respectively for the same time according to the same method; and body weight of each group was tested every day.

[2] = test system: models of pneumonia in rats induced by mixed bacteria solution of Staphylococcus aureus, Streptococcus pneumoniae, and Escherichia coli; assay: Arterial blood gas in rat pneumonia model induced by mixed bacteria; type: in vivo, SD rats; conditions: for PaCO2: partial pressure of carbon dioxide / PaO2: partial pressure of oxygen / arterial blood pH: pneumonia model rats
Description: as §1, §2, §3, §4
as §5, with “day. […]” for “day.”

[3] = test system: Escherichia coli; assay: animal or person; type: in vivo; conditions: for Number of escherichia coli: lung tissue of pneumonia model rats; for inhibition at 50 µg/mL / inhibition at 5000 µg/mL, 18 mg/kg: Escherichia coli, in Rattus norvegicus, inhaled or nasal, vs model control group
Protocol: as §3, §4, §5
(§6) Except the blank administration group, half animals of the remaining groups were randomly selected for lung function test, gross anatomy examination, and pathological test on D4 day, and lungs of 3 animals in each group were selected for bacteria culture and counting; and on D8 day, the remaining animals were subjected to lung function test, gross anatomy examination, and pathological test, and lungs of 3 animals in each group were selected for bacteria culture and counting (the blank control group and the blank administration group were not examined).
(§7) Experimental steps of bacteria culture: except the blank administration group, six animals were randomly selected from each of the remaining groups (three animals were randomly selected from the first and last anatomies), left middle lobe lung tissues were taken, washed with 0.9% sodium chloride injection, added with double weight of 0.9% sodium chloride injection, and ground into homogenate, the homogenate was inoculated into a meat extract agar medium and cultured at 37° C. for 16 to 18 h, bacteria were isolated, and each isolated bacteria suspension was diluted to 10^−1, 10^−2, 10^−3, 10^−4, 10^−5, 10^−6, 10^−7 and 10^−8 according to 10 times gradient, namely, 9 mL normal saline plus 1 mL bacteria suspension was 10^−1, and so on. […]

[4] = test system: Staphylococcus aureus; assay: animal or person; type: in vivo; conditions: for Number of staphylococcus aureus: lung tissue of pneumonia model rats; for inhibition at 50 µg/mL / inhibition at 5000 µg/mL, 18 mg/kg: Staphylococcus aureus, in Rattus norvegicus, inhaled or nasal, vs model control group
Protocol: as §3, §4, §5, §6, §7

[5] = test system: Streptococcus pneumoniae; assay: animal or person; type: in vivo; conditions: for Number of streptococcus pneumoniae: lung tissue of pneumonia model rats; for inhibition at 50 µg/mL / inhibition at 5000 µg/mL, 18 mg/kg: Streptococcus pneumoniae, in Rattus norvegicus, inhaled or nasal, vs model control group
Protocol: as §3, §4, §5, §6, §7

[6] = test system: models of pneumonia in rats induced by mixed bacteria solution of Staphylococcus aureus, Streptococcus pneumoniae, and Escherichia coli; assay: Pathological test of lung tissue (HE) in rat pneumonia model; type: in vivo, SD rats; conditions: erythromycin 5 mg/mL solution (18 mg/kg) inhaled
Description: as §1, §2
Animals in the blank administration group were not modeled, and inhaled a high-concentration polypeptide aerosol (0.48 mg/L) through nose and mouth every day. […]

[7] = D4, budesonide 0.05 mg/mL suspension (0.18 mg/kg) inhaled
[8] = D8, budesonide 0.05 mg/mL suspension (0.18 mg/kg) inhaled
[9] = D4, erythromycin 5 mg/mL solution (18 mg/kg) inhaled
[10] = D8, erythromycin 5 mg/mL solution (18 mg/kg) inhaled

What does the source list for `CCCC1O[C@@H]2C[C@H]3[C@@H]4CCC5=CC(=O)C=C[C@]5(C)[C@H]4[C@@H](O)C[C@]3(C)[C@]2(C(=O)CO)O1` (some centres unmarked) [Budesonide, budesonide]?
FEV200 (forced expiratory volume) [1, 7]: 2.72 ± 0.72 mL; FEV200/FVC [1, 7]: 85.78 ± 8.00%; FVC: forced vital capacity [1, 7]: 3.13 ± 0.59 mL; VT: tidal volume [1, 7]: 1.86 ± 0.69 mL; f: respiratory rate [1, 7]: 130 ± 39 time/min; FEV200 (forced expiratory volume) [1, 8]: 3.43 ± 0.69 mL; FEV200/FVC [1, 8]: 89.77 ± 4.58%; FVC: forced vital capacity [1, 8]: 3.80 ± 0.65 mL; VT: tidal volume [1, 8]: 1.63 ± 0.27 mL; f: respiratory rate [1, 8]: 126 ± 11 time/min; PaCO2: partial pressure of carbon dioxide [2, 7]: 52.87 ± 13.34 mmHg; PaO2: partial pressure of oxygen [2, 7]: 75.73 ± 30.92 mmHg; arterial blood pH [2, 7]: 7.31 ± 0.07; PaCO2: partial pressure of carbon dioxide [2, 8]: 34.35 ± 8.17 mmHg; PaO2: partial pressure of oxygen [2, 8]: 86.67 ± 24.78 mmHg; arterial blood pH [2, 8]: 7.45 ± 0.06; Number of escherichia coli [3, 7]: 3737 ± 1115 CFU/mL; Number of escherichia coli [3, 8]: 890 ± 409 CFU/mL; inhibition at 50 µg/mL ([3]; read-out: Inhibition rate of escherichia coli, D4, budesonide 0.05 mg/mL suspension (0.18 mg/kg) inhaled): -20.6%; inhibition at 50 µg/mL ([3]; read-out: Inhibition rate of escherichia coli, D8, budesonide 0.05 mg/mL suspension (0.18 mg/kg) inhaled): 7.58%; Number of staphylococcus aureus [4, 7]: 2577 ± 655 CFU/mL; Number of staphylococcus aureus [4, 8]: 560 ± 269 CFU/mL; inhibition at 50 µg/mL ([4]; read-out: Inhibition rate of staphylococcus aureus, D4, budesonide 0.05 mg/mL suspension (0.18 mg/kg) inhaled): 48.7%; inhibition at 50 µg/mL ([4]; read-out: Inhibition rate of staphylococcus aureus, D8, budesonide 0.05 mg/mL suspension (0.18 mg/kg) inhaled): 83.4%; Number of streptococcus pneumoniae [5, 7]: 1810 ± 957 CFU/mL; Number of streptococcus pneumoniae [5, 8]: 433 ± 276 CFU/mL; inhibition at 50 µg/mL ([5]; read-out: Inhibition rate of streptococcus pneumoniae, D4, budesonide 0.05 mg/mL suspension (0.18 mg/kg) inhaled): 61.7%; inhibition at 50 µg/mL ([5]; read-out: Inhibition rate of streptococcus pneumoniae, D8, budesonide 0.05 mg/mL suspension (0.18 mg/kg) inhaled): 72.7%

For `CC[C@H]1OC(=O)[C@H](C)[C@@H](O[C@H]2C[C@@](C)(OC)[C@@H](O)[C@H](C)O2)[C@H](C)[C@@H](O[C@@H]2O[C@H](C)C[C@H](N(C)C)[C@H]2O)[C@](C)(O)C[C@@H](C)C(=O)[C@H](C)[C@@H](O)[C@]1(C)O` [Erythromycin, erythromycin], which “FEV200 (forced expiratory volume)” value [1, 9] is on record?
The value was 2.84 ± 0.54 mL.

And the FEV200/FVC [1, 9]?
The FEV200/FVC was 90.65 ± 4.78 %.

What about the “FVC: forced vital capacity” value [1, 9] of the same molecule?
The value was 3.12 ± 0.52 mL.

And the “VT: tidal volume” value [1, 9]?
The value was 1.59 ± 0.39 mL.

What about the “f: respiratory rate” value [1, 9] of the same molecule?
Its value is 132 ± 27 time/min.

What about the “FEV200 (forced expiratory volume)” value [1, 10] of the same molecule?
Its value is 3.40 ± 0.12 mL.

And the FEV200/FVC [1, 10]?
Its FEV200/FVC is 92.36 ± 2.94 %.

What about the “FVC: forced vital capacity” value [1, 10] of the same molecule?
The value was 3.68 ± 0.20 mL.

And the “VT: tidal volume” value [1, 10]?
Its value is 1.67 ± 0.24 mL.

And the “f: respiratory rate” value [1, 10]?
Its value is 130 ± 25 time/min.

And the “PaCO2: partial pressure of carbon dioxide” value [2, 9]?
The value was 50.38 ± 6.60 mmHg.

What about the “PaO2: partial pressure of oxygen” value [2, 9] of the same molecule?
Its value is 69.68 ± 15.16 mmHg.

What about the “arterial blood pH” value [2, 9] of the same molecule?
Its value is 7.33 ± 0.05.

And the “PaO2 increase vs model control group” value ([2]; D8, erythromycin group (18 mg/kg), no statistical difference)?
Its value is 37.17%.

And the “PaCO2: partial pressure of carbon dioxide” value [2, 10]?
The value was 39.37 ± 5.60 mmHg.

And the “PaO2: partial pressure of oxygen” value [2, 10]?
The value was 71.08 ± 14.74 mmHg.

What about the “arterial blood pH” value [2, 10] of the same molecule?
Its value is 7.42 ± 0.04.

What about the “pathological changes of lungs compared with the model control group” value ([6]; D4) of the same molecule?
Its value is “significantly alleviated”.

What about the lung tissue lesions ([6]; D8) of the same molecule?
The lung tissue lesions was “tended to normal”.

And the “Number of escherichia coli” value [3, 9]?
Its value is 447 ± 146 CFU/mL.

What about the “Number of escherichia coli” value [3, 10] of the same molecule?
Its value is 80 ± 2 CFU/mL.

And the inhibition at 5000 µg/mL, 18 mg/kg ([3]; read-out: Inhibition rate of escherichia coli, D4, erythromycin 5 mg/mL solution (18 mg/kg) inhaled)?
Its inhibition at 5000 µg/mL, 18 mg/kg is 85.6%.

And the inhibition at 5000 µg/mL, 18 mg/kg ([3]; read-out: Inhibition rate of escherichia coli, D8, erythromycin 5 mg/mL solution (18 mg/kg) inhaled)?
The inhibition at 5000 µg/mL, 18 mg/kg was 91.7%.

What about the “Number of staphylococcus aureus” value [4, 9] of the same molecule?
The value was 633 ± 146 CFU/mL.

And the “Number of staphylococcus aureus” value [4, 10]?
The value was 113 ± 31 CFU/mL.

What about the inhibition at 5000 µg/mL, 18 mg/kg ([4]; read-out: Inhibition rate of staphylococcus aureus, D4, erythromycin 5 mg/mL solution (18 mg/kg) inhaled) of the same molecule?
Its inhibition at 5000 µg/mL, 18 mg/kg is 87.4%.

What about the inhibition at 5000 µg/mL, 18 mg/kg ([4]; read-out: Inhibition rate of staphylococcus aureus, D8, erythromycin 5 mg/mL solution (18 mg/kg) inhaled) of the same molecule?
The inhibition at 5000 µg/mL, 18 mg/kg was 96.7%.

What about the “Number of streptococcus pneumoniae” value [5, 9] of the same molecule?
The value was 1223 ± 287 CFU/mL.

What about the “Number of streptococcus pneumoniae” value [5, 10] of the same molecule?
The value was 67 ± 15 CFU/mL.

And the inhibition at 5000 µg/mL, 18 mg/kg ([5]; read-out: Inhibition rate of streptococcus pneumoniae, D4, erythromycin 5 mg/mL solution (18 mg/kg) inhaled)?
The inhibition at 5000 µg/mL, 18 mg/kg was 74.1%.

And the inhibition at 5000 µg/mL, 18 mg/kg ([5]; read-out: Inhibition rate of streptococcus pneumoniae, D8, erythromycin 5 mg/mL solution (18 mg/kg) inhaled)?
Its inhibition at 5000 µg/mL, 18 mg/kg is 95.8%.

Reference: patent publication US20230330178A1, “USE OF POLYPEPTIDE IN DRUG FOR PREVENTING AND TREATING PNEUMONIA” (priority 2020, published 2023)
